Source: US8466104B2, “Therapeutically active alpha MSH analogues” (AbbVie Inc., priority 2005, dated 2013)
Read-outs that look alike come from different tables or passages of the source.

Legend:
[1] = test system: LPS induced TNF-α production by human leucocytes (PBMC); assay: Inhibition of LPS induced TNF-a production by human leucocytes in vitro (experimental setup 1); type: cell-based; details: human leucocyte suspension
Protocol: Inhibition of LPS Induced TNF-a Production by Human Leucocytes In Vitro
20 mL human blood is collected in vacutainer tubes containing EDTA. PBMC is isolated using Ficoll-Paque Plus as in Amersham's Instruction 71-7167-00 AD, 2002-06. PBMC is counted using Tryphan Blue Solution (Sigma) and incubated in RPMI 1640, (Applichem), supplemented with 10 mM Hepes (Sigma), 2 mM L-glutamin (Sigma), 0.1% BSA (Sigma) and 50U/50 μg/mL Penicillin/Streptomycin (Sigma) in the concentration 5×10^5 cells/mL. The isolated PBMC is incubated in a humidified 5% CO2, 95% air atmosphere, at 37° C., in 24 well flat-bottomed plates (Corning Incorporated) with medium, 10 ng LPS/mL (Sigma), and test compound. After 18 hours the samples are centrifuged, and TNF-α in the supernatants is measured using Tumour Necrosis Factor Alpha [(h)TNF-α] from Human Biotrak ELISA System (Amersham).
The samples are incubated as following per donor: • PBMC's in RPMI (Time Control) • PBMC's with 10 ng LPS/mL (Vehicle) • PBMC's, 10 ng LPS/mL, 10^−17M a-MSH or a-MSH analogue • PBMC's, 10 ng LPS/mL, 10^−15M a-MSH or a-MSH analogue • PBMC's, 10 ng LPS/mL, 10^−13M a-MSH or a-MSH analogue • PBMC's, 10 ng LPS/mL, 10^−11M a-MSH or a-MSH analogue • PBMC's, 10 ng LPS/mL, 10^−9M a-MSH or a-MSH analogue • PBMC's, 10 ng LPS/mL, 10^−7M a-MSH or a-MSH analogue
All samples are diluted from an initial stock solution between 1.4×10^−4M and 1.8×10^−3M. All solutions are handled in BSA coated vials in order to protect against binding of the compound to the surface of the vials.
Data is presented as mean±SE. The effect of test compounds on LPS induced TNF-a liberation is expressed as percentage of the TNF-a accumulation in the LPS-vehicle group. All comparisons are analysed with Student's unpaired t-test. Differences are considered significant at probability levels (p) of 0.05.

[2] = test system: LPS induced TNF-α in plasma; assay: Inhibition of LPS induced TNFa production in rats in vivo (experimental setup 2); parameters: species or system rat; details: for dose at which the maximal inhibitory effect on TNF-a is achieved: doses 50, 200, 1000 μg/kg tested
Protocol: Inhibition of LPS Induced TNFa Production in Rats In Vivo
Experimental animals. Female Wistar rats (220-240 g) are obtained from the Charles River, Sulzfeld, Germany, and housed in a temperature- (22-24° C.) and moisture-controlled (40-70%) room with a 12 h light-dark cycle (light on from 6:00 A.M. to 6:00 P.M.). The rats are maintained on a standard rodent diet with 140 mmol/kg of sodium, 275 mmol/kg potassium and 23% protein (Altromin International, Lage, Germany) and have free access to water.
Animal preparation. […] After instrumentation, the animals are housed individually for 7-10 days until the day of the experiment.
Experimental protocol. Prior to the experiments all rats are adapted to the restraining cage used for the experiments by training them for two periods of two hours each. On the day of the experiment, the animal is transferred to a restraining cage, and an intravenous infusion of vehicle solution containing 150 mM glucose is started. The infusion rate is 0.5 ml/h throughout the experiment. After a short adaptation period, infusion of lipopolysaccharide (LPS) is started. LPS (E coli serotype 0127 B8, L 3129, Sigma, St. Louis, USA) is given at a dose of 4 mg/kg body weight delivered as an i.v. infusion over 1 hour. Arterial blood samples of 0.3 ml are taken 60, 90, and 120 minutes after start of the LPS infusion and replaced immediately with heparinized blood from a normal donor rat.
In addition to LPS infusion all rats are treated with a bolus injection of: • Vehicle (0.5 mL isotonic saline); • a-MSH in one of the following doses: 50 μg/kg bw; 200 μg/kg/bw or 1000 μg/kg bw; • Test compound in one of the following doses: 50 μg/kg bw; 200 μg/kg/bw or 1000 μg/kg bw.
Measurement of TNF-α in plasma: The blood samples are collected in a prechilled test tube with 0.5 mM EDTA, pH 7.4, and 20×10^6 IU/ml aprotinin. After centrifugation at 4° C., plasma samples are transferred to pre-chilled test tubes and stored at −20° C. for later measurements of TNF-α. TNF-α in plasma is determined by an ELISA (Biotrak, Amersham, UK).
Statistical analyses. Results are presented as means±SE. A two-way ANOVA for repeated measures is used to test for differences between groups. In case of P<0.05, the differences between corresponding periods are evaluated by unpaired t-tests with Bonferroni's correction of the level of significance.

Ac-Glu-Glu-Glu-Glu-Glu-Glu-Ser-Tyr-Ser-Met-Glu-His-Phe-Arg-Trp-Gly-Lys-Pro-Val-NH2 (Ac-EEEEEESYSMEHFRWGKPV-NH2) [a-MSH analogue #6]
dose dependent reduction of LPS induced TNF-a accumulation [1]: dose dependently reduce | inhibitory effect on TNF-a accumulation compared to native a-MSH [1]: markedly more pronounced | reduction of TNF-a accumulation during iv infusion of LPS [2]: reduce TNF-a accumulation | inhibitory effect on plasma TNF-a compared to native a-MSH ([2]; iv LPS infusion): markedly more pronounced | dose at which the maximal inhibitory effect on TNF-a is achieved ([2]; iv LPS infusion): 200 μg/kg body weight | inhibitory effect on plasma TNF-a compared to native a-MSH ([2]; iv LPS infusion, listed as SEQ ID NO: 2*): higher degree | reduction of TNF-a accumulation during iv infusion of LPS ([2]; listed as SEQ ID NO: 2*): significantly inhibit

Ac-Lys-Lys-Lys-Lys-Lys-Lys-Ser-Ser-Ile-Ile-Ser-His-(D-Phe)-Arg-Trp-Gly-Lys-Pro-Val-NH2 (KKKKKKSSIISHFRWGKPV; HELM PEPTIDE1{[ac].K.K.K.K.K.K.S.S.I.I.S.H.[dF].R.W.G.K.P.V.[am]}$$$$V2.0; SMILES CC[C@H](C)[C@H](NC(=O)[C@H](CO)NC(=O)[C@H](CO)NC(=O)[C@H](CCCCN)NC(=O)[C@H](CCCCN)NC(=O)[C@H](CCCCN)NC(=O)[C@H](CCCCN)NC(=O)[C@H](CCCCN)NC(=O)[C@H](CCCCN)NC(C)=O)C(=O)N[C@H](C(=O)N[C@@H](CO)C(=O)N[C@@H](Cc1c[nH]cn1)C(=O)N[C@H](Cc1ccccc1)C(=O)N[C@@H](CCCNC(=N)N)C(=O)N[C@@H](Cc1c[nH]c2ccccc12)C(=O)NCC(=O)N[C@@H](CCCCN)C(=O)N1CCC[C@H]1C(=O)N[C@H](C(N)=O)C(C)C)[C@@H](C)CC) [a-MSH analogue #5]
dose dependent reduction of LPS induced TNF-a accumulation [1]: dose dependently reduce | inhibitory effect on TNF-a accumulation compared to native a-MSH [1]: markedly more pronounced | reduction of TNF-a accumulation during iv infusion of LPS [2]: reduce TNF-a accumulation | inhibitory effect on plasma TNF-a compared to native a-MSH ([2]; iv LPS infusion): markedly more pronounced | dose at which the maximal inhibitory effect on TNF-a is achieved ([2]; iv LPS infusion): 200 μg/kg body weight | inhibitory effect on plasma TNF-a compared to native a-MSH ([2]; iv LPS infusion, listed as SEQ ID NO: 17*): higher degree | reduction of TNF-a accumulation during iv infusion of LPS ([2]; listed as SEQ ID NO: 17*): significantly inhibit

Ac-Lys-Lys-Lys-Lys-Lys-Lys-Ser-Ser-Ile-Ile-Ser-His-Phe-Arg-Trp-Gly-Lys-Pro-Val-NH2 (Ac-KKKKKKSSIISHFRWGKPV-NH2) [a-MSH analogue #4]
dose dependent reduction of LPS induced TNF-a accumulation [1]: dose dependently reduce | inhibitory effect on TNF-a accumulation compared to native a-MSH [1]: markedly more pronounced | reduction of TNF-a accumulation during iv infusion of LPS [2]: reduce TNF-a accumulation | inhibitory effect on plasma TNF-a compared to native a-MSH ([2]; iv LPS infusion): markedly more pronounced | TNF-a concentration in plasma, % of the maximal response (LPS-Vehicle) ([2]; iv LPS infusion, 200 μg/kg body weight iv, 120 minutes after initiation of LPS infusion): 12±2% | dose at which the maximal inhibitory effect on TNF-a is achieved ([2]; iv LPS infusion): 200 μg/kg body weight | inhibitory effect on plasma TNF-a compared to native a-MSH ([2]; iv LPS infusion, listed as SEQ ID NO: 13*): higher degree | reduction of TNF-a accumulation during iv infusion of LPS ([2]; listed as SEQ ID NO: 13*): significantly inhibit

Ac-Lys-Lys-Lys-Lys-Lys-Lys-Ser-Tyr-Ser-Met-Glu-His-Phe-Arg-Trp-Gly-Lys-Pro-(D-Val)-NH2 (KKKKKKSYSMEHFRWGKPV; HELM PEPTIDE1{[ac].K.K.K.K.K.K.S.Y.S.M.E.H.F.R.W.G.K.P.[dV].[am]}$$$$V2.0; SMILES CSCC[C@H](NC(=O)[C@H](CO)NC(=O)[C@H](Cc1ccc(O)cc1)NC(=O)[C@H](CO)NC(=O)[C@H](CCCCN)NC(=O)[C@H](CCCCN)NC(=O)[C@H](CCCCN)NC(=O)[C@H](CCCCN)NC(=O)[C@H](CCCCN)NC(=O)[C@H](CCCCN)NC(C)=O)C(=O)N[C@@H](CCC(=O)O)C(=O)N[C@@H](Cc1c[nH]cn1)C(=O)N[C@@H](Cc1ccccc1)C(=O)N[C@@H](CCCNC(=N)N)C(=O)N[C@@H](Cc1c[nH]c2ccccc12)C(=O)NCC(=O)N[C@@H](CCCCN)C(=O)N1CCC[C@H]1C(=O)N[C@@H](C(N)=O)C(C)C) [a-MSH analogue #7]
dose dependent reduction of LPS induced TNF-a accumulation [1]: dose dependently reduce | inhibitory effect on TNF-a accumulation compared to native a-MSH [1]: markedly more pronounced | reduction of TNF-a accumulation during iv infusion of LPS [2]: reduce TNF-α accumulation | inhibitory effect on plasma TNF-a compared to native a-MSH ([2]; iv LPS infusion): markedly more pronounced | dose at which the maximal inhibitory effect on TNF-a is achieved ([2]; iv LPS infusion): 200 μg/kg body weight | inhibitory effect on plasma TNF-a compared to native a-MSH ([2]; iv LPS infusion, listed as SEQ ID NO: 3*): higher degree | reduction of TNF-a accumulation during iv infusion of LPS ([2]; listed as SEQ ID NO: 3*): significantly inhibit
